Test results as given in US20220177954A1, “NUCLEIC ACID PROBES” (CYTOTEST INC., priority 2020, published 2022).

Columns and labels:
[1] = test system: CHD1 null cells; details: cited from earlier work
[2] = test system: PC-3 cell lines wt, chd1 ko1, chd1 ko2; experiment: Viability cell proliferation assay (PrestoBlue) in PC-3 wt versus chd1 ko isogenic cell lines; format: cell-based, human; details: CHD1 deficient (CRISPR-Cas9 knock out) PC-3 cells versus wild type, 24 hrs exposure, then 5 days drug-free
Experimental: PC-3 prostate cell line was purchased from ATCC® and grown in RPMI 1640 (Gibco) supplemented with 10% FBS (Gibco). RPE1-CHD1 knock out cells were provided by Alan D. D'Andrea's laboratory. Cells were incubated at 37° C. in 5% CO2, and regularly tested for Mycoplasma spp. contamination.
Full length SpCas9 ORF was introduced in PC-3 cell population by Lentiviral transduction using lentiCas9-Blast (Addgene #52962) construction. After antibiotics (blasticidin) selection, survival populations were single cell cloned, isogenic cell lines were generated and tested for Cas9 activity by cleavage assay.
CHD1 was targeted in stable CRISPR-Cas9 expressor isogenic PC-3 cell line using guide RNA CHD1_ex2_g1 (caccg[…]), resulting in PC-3 chd1 ko 1, and chd1 ko 2 homozygous loss cell lines.
Exponentially growing PC-3 cell lines wt, chd1 ko1, chd1 ko2 were seeded in 96-well plates (1000 cells/well) and incubated for 36 hrs to facilitate cell attachment. Identical cell numbers of seeded parallel isogenic lines were verified by the Celigo Imaging Cytometer after attachment.
Cells were exposed to Talazoparib (Selleckchem), Olaparib (MedChemExpress) and Bleomycin sulfate (Fisher Scientific) for 24 hrs, then kept in drug-free fresh media for 5 days until cell growth was determined by the addition of PrestoBlue (Invitrogen) and incubated for 2.5 hrs. Cell viability was determined by using the BioTek plate reader system. Fluorescence was recorded at 560 nm/590 nm, and values were calculated based on the fluorescence intensity. IC50 values were determined by using the AAT Bioquest IC50 calculator tool. P-values were calculated using student's t-test. P-values <0.05 were considered statistically significant.

| Molecule | olaparib sensitivity of CHD1-deficient cancer cells [1] | increase in sensitivity upon CHD1 deletion [2] |
| --- | --- | --- |
| O=C(c1cc(Cc2n[nH]c(=O)c3ccccc23)ccc1F)N1CCN(C(=O)C2CC2)CC1 [olaparib, Olaparib] | relatively mild | approximately 5 fold |
| Cn1ncnc1[C@H]1c2n[nH]c(=O)c3cc(F)cc(c23)N[C@@H]1c1ccc(F)cc1 [talazoparib, Talazoparib] |  | 15-20 fold |
| Bleomycin sulfate |  | 5 fold |
